The target of this assay is T1, human KSP motor domain (KSP(367H)) (Homo sapiens, UniProt P52732).
T1 construct: were used to amplify the motor domain and the neck linker region; made in house; host or cells: E. coli BL21 (DE3), pRSETa
T1 sequence (P52732 18-359 limits assumed): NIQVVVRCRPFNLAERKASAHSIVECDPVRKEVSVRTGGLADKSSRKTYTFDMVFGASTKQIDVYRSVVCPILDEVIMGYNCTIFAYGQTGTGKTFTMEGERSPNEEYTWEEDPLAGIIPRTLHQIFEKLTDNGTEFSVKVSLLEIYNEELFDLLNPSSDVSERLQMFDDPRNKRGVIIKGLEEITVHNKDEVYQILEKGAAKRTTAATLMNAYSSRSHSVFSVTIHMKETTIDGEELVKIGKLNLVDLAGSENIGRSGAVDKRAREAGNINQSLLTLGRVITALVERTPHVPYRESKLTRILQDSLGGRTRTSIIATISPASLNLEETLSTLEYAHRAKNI
Description: Kinesin ATPase in vitro assay. It counts as biochemical. As to conditions: kinesin motor domain with microtubules, 1 mM ATP, 23° C.; free phosphate by quinaldine red/ammonium molybdate, absorbance 540 nm. The source says:
I. Kinesin ATPase In Vitro Assay
Cloning and Expression of Human Poly-histidine Tagged KSP Motor Domain_(KSP(367H))
Plasmids for the expression of the human KSP motor domain construct were cloned by PCR using a pBluescript full length human KSP construct (Blangy et al., Cell, vol. 83, pp 1159-1169, 1995) as a template. The N-terminal primer 5′-[…] (SEQ. ID. NO.: 1) and the C-terminal primer 5′-[…] […] (SEQ. ID. NO.: 2) were used to amplify the motor domain and the neck linker region. The PCR products were digested with AseI and XhoI, ligated into the NdeI/XhoI digestion product of pRSETa (Invitrogen) and transformed into E. coli BL21 (DE3).
Cells were grown at 37° C. to an OD600 of 0.5. After cooling the culture to room temperature expression of KSP was induced with 100 μM IPTG and incubation was continued overnight. Cells were pelleted by centrifugation and washed once with ice-cold PBS. Pellets were flash-frozen and stored −80° C.
Cell pellets were thawed on ice and resuspended in lysis buffer (50 mM K-HEPES, pH 8.0, 250 mM KCl, 0.1% Tween, 10 mM imidazole, 0.5 mM Mg-ATP, 1 mM PMSF, 2 mM benzimidine, 1× complete protease inhibitor cocktail (Roche)). Cell suspensions were incubated with 1 mg/ml lysozyme and 5 mM β-mercaptoethanol on ice for 10 minutes, followed by sonication (3×30 sec). All subsequent procedures were performed at 4° C. Lysates were centrifuged at 40,000×g for 40 minutes. Supernatants were diluted and loaded onto an SP Sepharose column (Pharmacia, 5 ml cartridge) in buffer A (50 mM K-HEPES, pH 6.8, 1 mM MgCl2, 1 mM EGTA, 10 μM Mg-ATP, 1 mM DTT) and eluted with a 0 to 750 mM KCl gradient in buffer A. Fractions containing KSP were pooled and incubated with Ni-NTA resin (Qiagen) for one hour. The resin was washed three times with buffer B (Lysis buffer minus PMSF and protease inhibitor cocktail), followed by three 15-minute incubations and washes with buffer B. Finally, the resin was incubated and washed for 15 minutes three times with buffer C (same as buffer B except for pH 6.0) and poured into a column. KSP was eluted with elution buffer (identical to buffer B except for 150 mM KCl and 250 mM imidazole). KSP-containing fractions were pooled, made 10% in sucrose, and stored at −80° C.
Microtubules are prepared from tubulin isolated from bovine brain. Purified tubulin (>97% MAP-free) at 1 mg/ml is polymerized at 37° C. in the presence of 10 μM paclitaxel, 1 mM DTT, 1 mM GTP in BRB80 buffer (80 mM K-PIPES, 1 mM EGTA, 1 mM MgCl2 at pH 6.8). The resulting microtubules are separated from non-polymerized tubulin by ultracentrifugation and removal of the supernatant. The pellet, containing the microtubules, is gently resuspended in 10 μM paclitaxel, 1 mM DTT, 50 μg/ml ampicillin, and 5 μg/ml chloramphenicol in BRB80.
The kinesin motor domain is incubated with microtubules, 1 mM ATP (1:1 MgCl2: Na-ATP), and compound at 23° C. in buffer containing 80 mM K-HEPES (pH 7.0), 1 mM EGTA, 1 mM DTT, 1 mM MgCl2, and 50 mM KCl. The reaction is terminated by a 2-10 fold dilution with a final buffer composition of 80 mM HEPES and 50 mM EDTA (or, alternately, with a 1:1 addition of reaction volume to stop buffer (1.8M KCl and 50 mM EDTA)). Free phosphate from the ATP hydrolysis reaction is measured via a quinaldine red/ammonium molybdate assay by adding a 1.5 times volume of quench C (e.g., to a mixture of 40 μl reaction volume+40 μl stop buffer is then added 120 μl quench C). Quench A contains 0.1 mg/ml quinaldine red and 0.14% polyvinyl alcohol; quench B contains 12.3 mM ammonium molybdate tetrahydrate in 1.15 M sulfuric acid. Quench C is a 2:1 ratio of quench A:quench B The reaction is incubated for 5-10 minutes at 23° C., and the absorbance of the phospho-molybdate complex is measured at 540 nm.

pIC50: −log10 of the molar value.

By pIC50 is commonly meant −log10 of the IC50, conventionally taken in molar units. The low end stands for a large IC50, the high end for a small IC50. The compound `O=C1OCC2C(c3cc(F)ccc3F)=CC(c3ccccc3)N12` (racemic) [Compound 1-9a, (±)-(5S,7aR and 5R,7aS)-7-(2,5-Difluorophenyl)-5-phenyl-2,7a-dihydro-1H-pyrrole[1,2-c][1,3]oxazol-3-one] showed a pIC50 of at least 4.30.

Compound `O=C1NCC2C(c3cc(F)ccc3F)=CC(c3ccccc3)N12` (racemic) [Compound 2-4a, (±)-7-(2,5-Difluorophenyl)-5-phenyl-1,2,5,7a-tetrahydro-3H-pyrrolo[1,2-c]imidazol-3-one] had a pIC50 of at least 4.30. Regarding `CN1C[C@H]2C(c3cc(F)ccc3F)=C[C@@H](c3ccccc3)N2C1=O` (racemic) [Compound 2A-1a, (±)-(5S,7aR)-7-(2,5-Difluorophenyl)-2-methyl-5-phenyl-1,2,5,7a-tetrahydro-3H-pyrrolo[1,2-c]imidazol-3-one], the pIC50 was at least 4.30.

The compound `CCN1C[C@H]2C(c3cc(F)ccc3F)=C[C@@H](c3ccccc3)N2C1=O` (racemic) [Compound 2A-1b, (±)-(5S,7aR)-7-(2,5-Difluorophenyl)-2-ethyl-5-phenyl-1,2,5,7a-tetrahydro-3H-pyrrolo[1,2-c]imidazol-3-one] had a pIC50 of at least 4.30. The figure for `CN(C)CCN1C[C@H]2C(c3cc(F)ccc3F)=C[C@@H](c3ccccc3)N2C1=O` (racemic) [Compound 2A-1c, (±)-(5S,7aR)-7-(2,5-Difluorophenyl)-2-[2-(dimethylamino)ethyl]-5-phenyl-1,2,5,7a-tetrahydro-3H-pyrrolo[1,2-c]imidazol-3-one] is at least 4.30. In turn, `CCN(CC)CCN1C[C@H]2C(c3cc(F)ccc3F)=C[C@@H](c3ccccc3)N2C1=O` (racemic) [Compound 2A-1d, (±)-(5S,7aR)-7-(2,5-Difluorophenyl)-2-[2-(diethylamino)ethyl]-5-phenyl-1,2,5,7a-tetrahydro-3H-pyrrolo[1,2-c]imidazol-3-one] showed a pIC50 of at least 4.30. In turn, `O=C1CNC[C@H]2C(c3cc(F)ccc3F)=C[C@@H](c3ccccc3)N12` (racemic) [Compound 3-2a, (±)-(2S,5R and 2R,5S)-7-(2,5-Difluorophenyl)-5-phenyl-1,2,5,7a-tetrahydro-3H-pyrrolo[1,2-a]pyrazin-4(1H)-one] gave a pIC50 of at least 4.30. `O=C1CNCC2C(c3cc(F)ccc3F)=CC(c3ccccc3)N12` (racemic) [Compound 3-2b, (±)-(2S,5S and 2R,5R)-7-(2,5-Difluorophenyl)-5-phenyl-1,2,5,7a-tetrahydro-3H-pyrrolo[1,2-a]pyrazin-4(1H)-one] showed a pIC50 of at least 4.30. Regarding `CN1CC(=O)N2[C@@H](C1)C(c1cc(F)ccc1F)=C[C@H]2c1ccccc1` (racemic) [Compound 4-1, (±)-(6S,8aR and 6R,8aS)-8-(2,5-Difluorophenyl)-2-methyl-6-phenyl-2,3,6,8a-tetrahydropyrrolo[1,2-a]pyrazin-4(1H)-one], the pIC50 was at least 4.30. The figure for `O=C1CN2[C@@H](CN1)C(c1cc(F)ccc1F)=C[C@H]2c1ccccc1` (racemic) [Compound 5-1, (±)-(6S,8aR and 6R,8aS)-8-(2,5-Difluorophenyl)-6-phenyl-1,2,6,8a-tetrahydropyrrolo[1,2-a]pyrazin-3(4H)-one] is at least 4.30.

These data come from patent publication US7427637B2, “Mitotic kinesin inhibitors” (Merck & Co. Inc., priority 2003, dated 2008).
